According to patent EP4610269A1, “UROKINASE PLASMINOGEN ACTIVATOR SURFACE RECEPTOR (UPAR) LIGANDS FOR DIAGNOSTIC OR THERAPEUTIC USE” (3B Pharmaceuticals GmbH, priority 2024, dated 2025):
Where two headings read alike, the source gives them in different places. *1 amine or outer side, *2 acyl side, *3 side chain or, on linkers, in order; H or OH if unused. Where a SMILES comes first, the peptide text is derived from it. Bridges are numbered along the chain shown (N, C = ends). [ ]: non-standard residue; d: D form. The star is where a group is joined. Pro(trans-4-NH2) = O=C([C@@H]1C[C@@H](N[*:3])CN1[*:1])[*:2]; DOTA = O=C(O)CN1CCN(CC(=O)O)CCN(CC(=O)*)CCN(CC(=O)O)CC1; Phe(4-CONH2) = NC(=O)c1ccc(C[C@H](N)C(=O)O)cc1; Pro(cis-4-F) = O=C(O)[C@@H]1C[C@H](F)CN1; Hyp = O=C(O)[C@@H]1C[C@@H](O)CN1; 3Pal = N[C@@H](Cc1cccnc1)C(=O)O; Pentanoyl(4-Me) = CC(C)CCC(=O)*; Cit = NC(=O)NCCC[C@H](N)C(=O)O; Butoxycarbonyl = CCCCOC(=O)*; Suc = O=C(CCC(=O)[*:2])[*:1]; Orn = NCCC[C@H](N)C(=O)O; Nva = CCC[C@H](N)C(=O)O; Pentanoyl = CCCCC(=O)*; AEEA = NCCOCCOCC(=O)O

Legend:
[1] = target: T1, human uPAR (uPAR-Fc) (Homo sapiens, UniProt Q03405); assay: Surface plasmon resonance (SPR) assay, single cycle kinetics; format: binding; conditions: pKD category for uPAR SPR activity assay, uPAR-Fc on Protein A-Chip, 25°C, read-out: pKD CAT (converted)
T1 construct: comprising amino acids Leu23-Arg303 according to UniProt entry Q03405.1; purchased R&D Systems 10378-UK-100
Procedure, shortened: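 uPAR-Fc (Leu23-Arg303 extracellular domains, human IgG1 Fc) captured on Protein A chip to ~2000 RU; single-cycle kinetics at 25°C in HEPES running buffer pH 7.4 with 0.1% DMSO. KD from double-referenced sensorgrams fitted to 1:1 Langmuir model, reported as pKD.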

[2] = target: T2, uPAR-expressing HEC-265 human endometrial adenocarcinoma cells (Homo sapiens, UniProt Q03405); assay: Competitive FACS binding assay; conditions: pIC50 category of FACS binding
T2 construct: Cell surface uPAR-expressing HEC-265 human endometrial adenocarcinoma cells; host or cells: HEC-265
Procedure, shortened: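 Competitive displacement of a 10 nM biotinylated peptide from HEC-265 cells (1 h, 4 °C, PBS/1% BSA), detected via APC-streptavidin by flow cytometry. pIC50 from four-parameter logistic fit of median fluorescence versus concentration.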

T2 sequence (Q03405 23-335): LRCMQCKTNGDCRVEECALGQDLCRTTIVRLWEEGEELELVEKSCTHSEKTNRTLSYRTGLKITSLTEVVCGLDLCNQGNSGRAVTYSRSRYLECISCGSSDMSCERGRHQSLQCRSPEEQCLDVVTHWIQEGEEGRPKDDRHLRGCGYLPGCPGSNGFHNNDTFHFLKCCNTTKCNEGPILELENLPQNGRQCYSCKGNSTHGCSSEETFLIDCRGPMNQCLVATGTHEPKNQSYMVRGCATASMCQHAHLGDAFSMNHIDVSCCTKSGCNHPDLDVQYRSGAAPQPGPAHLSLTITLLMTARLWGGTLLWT
T1 sequence (Q03405 23-303): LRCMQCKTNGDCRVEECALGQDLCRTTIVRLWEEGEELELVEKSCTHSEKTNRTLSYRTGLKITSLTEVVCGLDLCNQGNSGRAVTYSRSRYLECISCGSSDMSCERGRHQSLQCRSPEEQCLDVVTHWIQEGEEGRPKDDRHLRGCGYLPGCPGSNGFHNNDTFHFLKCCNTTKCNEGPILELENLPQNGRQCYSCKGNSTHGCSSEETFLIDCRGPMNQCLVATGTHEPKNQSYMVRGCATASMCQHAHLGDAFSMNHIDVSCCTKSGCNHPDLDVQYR

Compound	Kd [1] [nM]	IC50 [2] [nM]	Kd ([1]; single cycle kinetics) [nM]
CCCCC(=O)N[C@H]1CSSC[C@@H](C(N)=O)NC(=O)[C@H](CCC)NC(=O)[C@H]([C@@H](C)CC)NC(=O)[C@@H]2C[C@@H](O)CN2C(=O)[C@@H]2CCCN2C(=O)[C@H](Cc2ccccc2)NC(=O)[C@H](Cc2cccnc2)NC(=O)[C@H](CCCCNC(=O)CN2CCN(CC(=O)O)CCN(CC(=O)O)CCN(CC(=O)O)CC2)NC(=O)[C@H](CCCNC(N)=O)NC1=O [UPAR-138, Pent-[Cys-Cit-Lys(DOTA)-Mpa-Phe-Pro-Hyp-Ile-Nva-Cys]-NH2] (Pentanoyl-C[Cit]K(DOTA)[3Pal]FP[Hyp]I[Nva]C-NH2; disulfide 1-10)	< 1.58	≤ 10	–
CC[C@H](C)[C@@H]1NC(=O)[C@@H]2C[C@@H](O)CN2C(=O)[C@@H]2CCCN2C(=O)[C@H](Cc2ccccc2)NC(=O)[C@H](Cc2ccc(O)cc2)NC(=O)[C@H](CCC(N)=O)NC(=O)[C@H](CCCNC(N)=O)NC(=O)[C@@H](NC(=O)CCC(C)C)CSSC[C@@H](C(N)=O)NC(=O)[C@H](CC(C)C)NC1=O [UPAR-174, iHex-[Cys-Cit-Gln-Tyr-Phe-Pro-Hyp-Ile-Leu-Cys]-NH2] ({Pentanoyl(4-Me)}-C[Cit]QYFP[Hyp]ILC-NH2; disulfide 1-10)	< 1.58	≤ 10	–
CC[C@H](C)[C@@H]1NC(=O)[C@@H](C)NC(=O)[C@@H]2CCCN2C(=O)[C@H](Cc2ccccc2)NC(=O)[C@H](Cc2ccc(O)cc2)NC(=O)[C@H](CCCCNC(=O)CN2CCN(CC(=O)O)CCN(CC(=O)O)CCN(CC(=O)O)CC2)NC(=O)[C@H](CCCNC(N)=O)NC(=O)[C@@H](NC(=O)[C@H](CC(C)C)NC(=O)[C@H](CC(=O)O)NC(C)=O)CSSC[C@@H](C(N)=O)NC(=O)[C@H](CC(C)C)NC1=O [UPAR-189, Ac-Asp-Leu-[Cys-Cit-Lys(DOTA)-Tyr-Phe-Pro-ala-Ile-Leu-Cys]-NH2] (Ac-DLC[Cit]K(DOTA)YFP[dA]ILC-NH2; disulfide 3-12)	< 1.58	≤ 10	–
CC[C@H](C)[C@@H]1NC(=O)[C@@H]2CCCN2C(=O)[C@@H]2CCCN2C(=O)[C@H](Cc2ccccc2)NC(=O)[C@H](Cc2ccc(O)cc2)NC(=O)[C@H](CCC(N)=O)NC(=O)[C@H](CCCNC(N)=O)NC(=O)[C@@H](NC(=O)[C@H](CC(C)C)NC(=O)COCCOCCNC(=O)CN2CCN(CC(=O)O)CCN(CC(=O)O)CCN(CC(=O)O)CC2)CSSC[C@@H](C(N)=O)NC(=O)[C@H](CC(C)C)NC1=O [UPAR-229, DOTA-O2Oc-Leu-[Cys-Cit-Gln-Tyr-Phe-Pro-Pro-Ile-Leu-Cys]-NHz] ({DOTA-AEEA}-LC[Cit]QYFPPILC-NH2; disulfide 2-11)	< 1.58	≤ 10	–
CC[C@H](C)[C@@H]1NC(=O)[C@@H](C)NC(=O)[C@@H]2CCCN2C(=O)[C@H](Cc2ccccc2)NC(=O)[C@H](Cc2ccc(O)cc2)NC(=O)[C@H](CCC(N)=O)NC(=O)[C@H](CCCNC(N)=O)NC(=O)[C@@H](NC(=O)[C@H](CC(C)C)NC(=O)COCCOCCNC(=O)CN2CCN(CC(=O)O)CCN(CC(=O)O)CCN(CC(=O)O)CC2)CSSC[C@@H](C(N)=O)NC(=O)[C@H](CC(C)C)NC1=O [UPAR-245, DOTA-O2Oc-Leu-[Cys-Cit-Gln-Tyr-Phe-Pro-ala-Ile-Leu-Cys]-NH2] ({DOTA-AEEA}-LC[Cit]QYFP[dA]ILC-NH2; disulfide 2-11)	< 1.58	≤ 10	–
CCCCC(=O)N[C@H]1CSSC[C@@H](C(N)=O)NC(=O)[C@H](CCC)NC(=O)[C@H]([C@@H](C)CC)NC(=O)[C@@H]2C[C@@H](O)CN2C(=O)[C@@H]2CCCN2C(=O)[C@H](Cc2ccccc2)NC(=O)[C@H](Cc2ccc(O)cc2)NC(=O)[C@H](CCCCNC(=O)CN2CCN(CC(=O)O)CCN(CC(=O)O)CCN(CC(=O)O)CC2)NC(=O)[C@H](CCCNC(N)=O)NC1=O [UPAR-261, Pent-[Cys-Cit-Lys(DOTA)-Tyr-Phe-Pro-Hyp-Ile-Nva-Cys]-NH2] (Pentanoyl-C[Cit]K(DOTA)YFP[Hyp]I[Nva]C-NH2; disulfide 1-10)	< 1.58	≤ 10	–
CCCCOC(=O)N[C@H]1CSSC[C@@H](C(N)=O)NC(=O)[C@H](CCC)NC(=O)[C@H]([C@@H](C)CC)NC(=O)[C@@H]2C[C@@H](O)CN2C(=O)[C@@H]2C[C@H](F)CN2C(=O)[C@H](Cc2ccccc2)NC(=O)[C@H](Cc2ccc(C(N)=O)cc2)NC(=O)[C@H](CCCNC(=O)CN2CCN(CC(=O)O)CCN(CC(=O)O)CCN(CC(=O)O)CC2)NC(=O)[C@H]([C@@H](C)O)NC1=O [UPAR-276, Butoc-[Cys-Thr-Orn(DOTA)-Pcnf-Phe-4Cfp-Hyp-Ile-Nva-Cys]-NHz] (Butoxycarbonyl-CT[Orn](DOTA)[Phe(4-CONH2)]F[Pro(cis-4-F)][Hyp]I[Nva]C-NH2; disulfide 1-10)	< 1.58	≤ 10	–
CCC[C@H](NC(=O)CCC(=O)O)C(=O)N[C@H]1CSSC[C@@H](C(N)=O)NC(=O)[C@H](CCC)NC(=O)[C@H]([C@@H](C)CC)NC(=O)[C@@H]2C[C@@H](O)CN2C(=O)[C@@H]2CCCN2C(=O)[C@H](Cc2ccccc2)NC(=O)[C@H](Cc2ccc(O)cc2)NC(=O)[C@H](CCCCNC(=O)CN2CCN(CC(=O)O)CCN(CC(=O)O)CCN(CC(=O)O)CC2)NC(=O)[C@H](CCCNC(N)=O)NC1=O [UPAR-293, HO-Succinyl-Nva-[Cys-Cit-Lys(DOTA)-Tyr-Phe-Pro-Hyp-Ile-Nva-Cys]-NH2] (Suc-[Nva]C[Cit]K(DOTA)YFP[Hyp]I[Nva]C-NH2; disulfide 2-11)	< 1.58	≤ 10	–
CC[C@H](C)[C@@H]1NC(=O)[C@@H](CCCNC(=N)N)NC(=O)[C@@H]2CCCN2C(=O)[C@H](Cc2ccccc2)NC(=O)[C@H](Cc2ccc(O)cc2)NC(=O)[C@H](CCCCNC(=O)CN2CCN(CC(=O)O)CCN(CC(=O)O)CCN(CC(=O)O)CC2)NC(=O)[C@H](CCCNC(N)=O)NC(=O)[C@@H](NC(=O)[C@H](CC(C)C)NC(=O)[C@H](CC(=O)O)NC(C)=O)CSSC[C@@H](C(N)=O)NC(=O)[C@H](CC(C)C)NC1=O [UPAR-306, Ac-Asp-Leu-[Cys-Cit-Lys(DOTA)-Tyr-Phe-Pro-arg-Ile-Leu-Cys]-NH2] (Ac-DLC[Cit]K(DOTA)YFP[dR]ILC-NH2; disulfide 3-12)	< 1.58	≤ 10	–
CC[C@H](C)[C@@H]1NC(=O)[C@@H](C)NC(=O)[C@@H]2CCCN2C(=O)[C@H](Cc2ccccc2)NC(=O)[C@H](Cc2ccc(O)cc2)NC(=O)[C@H](CCC(N)=O)NC(=O)[C@H](CCCNC(N)=O)NC(=O)[C@@H](NC(=O)CCC(C)C)CSSC[C@@H](C(N)=O)NC(=O)[C@H](CC(C)C)NC1=O [UPAR-338, iHex-[Cys-Cit-Gln-Tyr-Phe-Pro-ala-Ile-Leu-Cys]-NH2] ({Pentanoyl(4-Me)}-C[Cit]QYFP[dA]ILC-NH2; disulfide 1-10)	< 1.58	≤ 10	–
CC[C@H](C)[C@@H]1NC(=O)[C@@H]2CCCN2C(=O)[C@@H]2CCCN2C(=O)[C@H](Cc2ccccc2)NC(=O)[C@H](Cc2ccc(O)cc2)NC(=O)[C@H](CCCCNC(=O)CN2CCN(CC(=O)O)CCN(CC(=O)O)CCN(CC(=O)O)CC2)NC(=O)[C@H](CCCNC(N)=O)NC(=O)[C@@H](NC(=O)CCC(C)C)CSSC[C@@H](C(N)=O)NC(=O)[C@H](CC(C)C)NC1=O [UPAR-382, iHex-[Cys-Cit-Lys(DOTA)-Tyr-Phe-Pro-Pro-Ile-Leu-Cys]-NHz] ({Pentanoyl(4-Me)}-C[Cit]K(DOTA)YFPPILC-NH2; disulfide 1-10)	–	≤ 10	< 1.58
CC[C@H](C)[C@@H]1NC(=O)[C@@H]2C[C@@H](NC(=O)CN3CCN(CC(=O)O)CCN(CC(=O)O)CCN(CC(=O)O)CC3)CN2C(=O)[C@@H]2CCCN2C(=O)[C@H](Cc2ccccc2)NC(=O)[C@H](Cc2ccc(O)cc2)NC(=O)[C@H](CCC(N)=O)NC(=O)[C@H](CCCNC(N)=O)NC(=O)[C@@H](NC(=O)CCC(C)C)CSSC[C@@H](C(N)=O)NC(=O)[C@H](CC(C)C)NC1=O [UPAR-389, iHex-[Cys-Cit-Gln-Tyr-Phe-Pro-Tap(DOTA)-Ile-Leu-Cys]-NH2] ({Pentanoyl(4-Me)}-C[Cit]QYFP[Pro(trans-4-NH2)](DOTA)ILC-NH2; disulfide 1-10)	–	≤ 10	< 1.58
CCCCC(=O)N[C@H]1CSSC[C@@H](C(N)=O)NC(=O)[C@H](CCC)NC(=O)[C@H]([C@@H](C)CC)NC(=O)[C@@H]2C[C@@H](O)CN2C(=O)[C@@H]2C[C@@H](O)CN2C(=O)[C@H](Cc2ccccc2)NC(=O)[C@H](Cc2ccc(O)cc2)NC(=O)[C@H](CCCCNC(=O)CN2CCN(CC(=O)O)CCN(CC(=O)O)CCN(CC(=O)O)CC2)NC(=O)[C@H](CCCNC(N)=O)NC1=O [UPAR-403, Pent-[Cys-Cit-Lys(DOTA)-Tyr-Phe-Hyp-Hyp-Ile-Nva-Cys]-NH2] (Pentanoyl-C[Cit]K(DOTA)YF[Hyp][Hyp]I[Nva]C-NH2; disulfide 1-10)	–	≤ 10	< 1.58
CC[C@H](C)[C@@H]1NC(=O)[C@@H](C)NC(=O)[C@@H]2CCCN2C(=O)[C@H](Cc2ccccc2)NC(=O)[C@H](Cc2ccc(O)cc2)NC(=O)[C@H](CC(=O)O)NC(=O)[C@H](CCCNC(N)=O)NC(=O)[C@@H](NC(=O)CCC(C)C)CSSC[C@@H](C(N)=O)NC(=O)[C@H](CC(C)C)NC1=O [UPAR-434, iHex-[Cys-Cit-Asp-Tyr-Phe-Pro-ala-Ile-Leu-Cys]-NH2] ({Pentanoyl(4-Me)}-C[Cit]DYFP[dA]ILC-NH2; disulfide 1-10)	–	≤ 10	< 1.58
